Entries after “also recorded” stand apart in the source; their conditions may differ. Where a name gives a salt, the structure may show the parent alone. Read-outs that look alike come from different tables or passages of the source. Each block holds one molecule with its values, some of them ahead of it.
Key:
plasma S1P = assay: Plasma S1P concentrations in mice; format: in vivo, mice (C57BL/6j)
Experimental: (§1) To determine the effect of 11iin vivo, mice were treated with 3, 10, and 30 mg/kg intraperitoneally, and the amount of circulating lymphocytes was quantified. A hallmark of Spns2 inhibition is the decrease in lymphocytes counts, which is a pharmacodynamic marker of target engagement.[54],[55] […] To determine whether blood S1P levels were affected, plasma S1P concentrations were measured via LC-MS. […] The extent by which Spns2 inhibition by knockout or a pharmacological inhibitor affects the S1P level remains unclear. A range of changes from no significant difference[30]−[32] to 45% reduction in plasma S1P levels compared to wild type littermates have been reported.[9],[24],[28],[33]
(§2) Figure 8 Biological evaluation of 11i in five C57BL/6j strain female mice (8–10 weeks old). […] Blood was drawn 4 h postdose. (B) Plasma S1P concentrations in mice treated with 11i are shown relative to vehicle 6 h following IP administration at 3 mg/kg, 10 mg/kg, and 30 mg/kg. […] Blood was drawn 4 h postdose. (D) Plasma S1P concentrations in mice treated with 11i are shown relative to vehicle 4 h post oral administration at 10 mg/kg, 30 mg/kg, and 100 mg/kg. […]
(§3) Compounds that performed well in the HeLa cell assay were subsequently administered to mice (C57BL/6j strain). […] Plasma S1P concentrations were determined using LC-MS/MS. […]

[1] = Compound concentrations in plasma of mice after oral dose; format: in vivo, mice (C57BL/6j)
Experimental: We next investigated the potential oral bioavailability of 11i (SLF80821178), which will be a significant advantage over SLB1122168. […] Thus, mice were administered a single 10 mg/kg oral dose of 11i, and compound levels in plasma were quantified.
Figure 7 Compound concentrations in plasma of mice treated with 11i. Three C57BL/6j strain female mice (8–10 weeks old) were treated with a single 10 mg/kg dose of 11i administered PO. Blood samples were collected, and plasma 11i levels were quantified via LC-MS/MS.
Compounds that performed well in the HeLa cell assay were subsequently administered to mice (C57BL/6j strain). Inhibitor (10 mg/kg) or an equivalent dose of vehicle (36.1% PEG400/9.1% ethanol/4.6% solutol/50% H2O) was administered to animals via an intraperitoneal injection or oral gavage. After 6 to 16 h, blood samples were collected. Lymphocyte counts were obtained from 20 μL of mouse blood using a Heska HT5 Element blood analyzer. Plasma S1P concentrations were determined using LC-MS/MS. All animal protocols were approved prior to experimentation by the University of Virginia School of Medicine’s Animal Care and Use Committee.

mouse Spns2 [2] = molecular target: T1, mouse Spns2 (Mus musculus, UniProt Q91VM4); assay: HeLa cell S1P release assay (Spns2 inhibition); format: cell-based; details: for inhibition at 1 µM: HeLa, read-out: %Inhib. (Spns2 inhibition, percent decrease in S1P secretion relative to control); for inhibition at 1 µM / %Inhib. (Spns2 inhibition, percent decrease in S1P secretion relative to control): 1 μM inhibitor, HeLa cells, S1P in media by LC-MS/MS; for %Inhib. (Spns2 inhibition, percent decrease in S1P secretion relative to control): 1 µM
T1 construct: expressed in transfected cells; host or cells: HeLa cells (G418-resistant pools)
T1 sequence (Q91VM4 1-549): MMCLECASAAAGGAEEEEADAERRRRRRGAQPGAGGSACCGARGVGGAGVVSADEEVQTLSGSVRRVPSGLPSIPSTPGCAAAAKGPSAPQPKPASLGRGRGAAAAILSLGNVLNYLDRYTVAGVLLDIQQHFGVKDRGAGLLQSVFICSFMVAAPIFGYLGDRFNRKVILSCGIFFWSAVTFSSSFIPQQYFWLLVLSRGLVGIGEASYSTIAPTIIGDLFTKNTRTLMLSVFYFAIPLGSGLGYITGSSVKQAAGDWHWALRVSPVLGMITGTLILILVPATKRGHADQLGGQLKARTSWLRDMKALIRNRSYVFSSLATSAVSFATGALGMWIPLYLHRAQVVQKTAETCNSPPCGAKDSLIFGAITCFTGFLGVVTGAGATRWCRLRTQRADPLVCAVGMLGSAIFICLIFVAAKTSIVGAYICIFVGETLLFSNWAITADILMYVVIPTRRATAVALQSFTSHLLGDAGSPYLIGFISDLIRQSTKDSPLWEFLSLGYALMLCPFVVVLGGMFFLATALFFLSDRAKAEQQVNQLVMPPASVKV
Experimental: With a library of analogs of SLB1122168 containing phenylurea, phenylcarbamate, and benzamide as bioisostere of the benzoxazole, we investigated their potential in inhibiting S1P transport using a HeLa cell assay.[36]−[38],[43] Briefly, in this assay, Spns2 is overexpressed whereas the S1P-degrading enzymes (lyase or phosphatases) were blocked with inhibitors.[44],[45] Inhibition of S1P transport is determined by measuring the amount of S1P in the buffer using LC-MS.
This assay was conducted as reported by Kharel et al.[43] Briefly, compounds were assessed in a HeLa cell assay at a 1 μM test concentration, unless noted otherwise. HeLa cells were transfected with a pcDNA3.1 plasmid encoding mouse Spns2, and pools of cells resistant to G418 were selected. S1P catabolic pathways were suppressed by the addition of 4-deoxypyridoxine (1 mM), NaF (2 mM), and Na3VO4 (0.2 mM). After growing cells to near confluence on 12-well tissue culture dishes, growth media was removed, inhibitors were introduced in release media (serum free medium containing 0.2% fatty acid free BSA), and the cells were incubated for 16–18 h at 37 °C. The BSA with bound S1P was concentrated from the release media by TFA-driven precipitation after addition of the d7-S1P internal standard, the S1P extracted from the protein pellet, and quantified by LC-MS/MS. Lower levels of S1P release into the media indicated greater degrees of Spns2 inhibition. Inhibition is reported as the percent decrease in S1P release relative to the control where no inhibitor was introduced.

circulating lymphocytes = assay: Circulating lymphocyte counts in mice; format: in vivo, mice (C57BL/6j)
Experimental: as §1, §2, §3

[3] = design: method as in PMID 37010497; details: cited from earlier work
mice = tested on: mice; design: method as in PMID 35609189; details: dose 30 mg/kg; cited from earlier work
kidney fibrosis = tested on: kidney fibrosis; design: method as in PMID 35976996; details: unilateral ischemia-reperfusion injury; cited from earlier work
mouse Spns2 [4] = molecular target: T1, mouse Spns2; details: read-out: IC50 (Spns2 inhibition); cited from earlier work

oral bioavailability ([1]; 10 mg/kg PO): orally bioavailable
Tmax ([1]; female, C57BL/6j, mouse, single 10 mg/kg PO, plasma, read-out: tmax (time of maximum circulating level)): 4 h
compound exposure at tmax (maximum plasma concentration) ([1]; single 10 mg/kg PO, plasma): 1.2 µM
time circulating levels remained elevated above 0.5 μM ([1]; single 10 mg/kg PO, plasma): more than 8 h
inhibition at 1 µM (mouse Spns2 [2]): ≥ 80%
IC50 (mouse Spns2 [2]; dose-response 1 nM to 10 μM, HeLa cells transfected with Spns2, read-out: IC50, inhibition of S1P release from HeLa cells): 51 ± 3 nM
SMILES: CCCCCCCCCCc1ccc(NC(=O)N2CCNCC2)cc1.Cl [11i, N-(4-Decylphenyl)piperazine-1-carboxamide Hydrochloride]
change in plasma S1P levels (plasma S1P; IP 3, 10 and 30 mg/kg, 6 h): no change
change in plasma S1P levels (plasma S1P; PO 10, 30 and 100 mg/kg, 4 h): no change
decrease in lymphocyte count, maximum level (circulating lymphocytes; IP 3, 10 and 30 mg/kg, blood 4 h postdose): 50%
reduction in circulating lymphocyte counts (circulating lymphocytes; route not stated at this place (abstract)): ~50%

inhibition at 1 µM (mouse Spns2 [2]): 51 ± 2%
SMILES: CCCCCCCCCCc1ccc(C(=O)N(C)[C@@H]2CCCNC2)cc1 [(R)-13c, (R)-4-Decyl-N-Methyl-N-(piperidin-3-yl)benzamide Hydrochloride]

inhibition at 1 µM (mouse Spns2 [2]): 33 ± 3%
SMILES: CCCCCCCCCCc1ccc(C(=S)N[C@@H]2CCNC2)cc1 [(R)-15b, (R)-4-Decyl-N-(pyrrolidin-3-yl)benzothioamide Hydrochloride]

inhibition at 1 µM (mouse Spns2 [2]): 47%
SMILES: CCCCCCCCCCc1ccc(C(=S)N[C@@H]2CCCNC2)cc1 [(R)-15c, (R)-4-Decyl-N-(piperidin-3-yl)benzothioamide Hydrochloride]

%Inhib. (Spns2 inhibition, percent decrease in S1P secretion relative to control) (mouse Spns2 [2]): 61 ± 5%
inhibition at 1 µM (mouse Spns2 [2]): 61 to 66%
SMILES: CCCCCCCCCCc1ccc(C(=O)N[C@H]2CCNC2)cc1.Cl [(S)-4d, (S)-4-Decyl-N-(pyrrolidin-3-yl)benzamide Hydrochloride]

inhibition at 1 µM (mouse Spns2 [2]): 20 ± 3%
SMILES: CCCCCCCCCCc1ccc(C(=O)N[C@H]2CCCNC2)cc1 [(S)-4f, (S)-4-Decyl-N-(piperidin-3-yl)benzamide Hydrochloride]

%Inhib. (Spns2 inhibition, percent decrease in S1P secretion relative to control) (mouse Spns2 [2]): 44 ± 1%
%Inhib. (Spns2 inhibition, percent decrease in S1P secretion relative to control) (mouse Spns2 [2]; listed as 4i): 68%
SMILES: CCCCCCCCCCc1ccc(C(=O)N2CCN[C@@H](C)C2)cc1.Cl [(S)-4i, (S)-(4-Decylphenyl)(3-methylpiperazin-1-yl)methanone Hydrochloride]

inhibition at 1 µM (mouse Spns2 [2]): 46%
SMILES: CCCCCCCCCCc1ccc(NC(=O)O[C@H]2CCNC2)cc1 [(S)-8c, (S)-Pyrrolidin-3-yl (4-Decylphenyl)carbamate Hydrochloride]

inhibition at 1 µM (mouse Spns2 [2]): 48 ± 2%
SMILES: CCCCCCCCCCc1ccc(NC(=O)O[C@H]2CCCNC2)cc1 [(S)-8e, (S)-Piperidin-3-yl (4-Decylphenyl)carbamate Hydrochloride]

inhibition at 1 µM (mouse Spns2 [2]): 44 ± 2%
SMILES: CCCCCCCCCCc1ccc(NC(=O)N[C@H]2CCNC2)cc1 [(S)-11d, (S)-1-(4-Decylphenyl)-3-(pyrrolidin-3-yl)urea Hydrochloride]

inhibition at 1 µM (mouse Spns2 [2]): 78 ± 4%
SMILES: CCCCCCCCCCc1ccc(NC(=O)N[C@H]2CCCNC2)cc1 [(S)-11f, (S)-1-(4-Decylphenyl)-3-(piperidin-3-yl)urea Hydrochloride]

inhibition at 1 µM (mouse Spns2 [2]): 85 ± 2%
SMILES: CCCCCCCCCCc1ccc2nc(NC[C@H]3CCNC3)oc2c1.Cl [SLB1122168]
oral bioavailability [3]: not orally bioavailable; also recorded: poor oral bioavailability

SMILES: CCCCCCCCCCc1ccc(-c2noc(CCCN)n2)cc1.Cl [SLF1081851]
toxicity to mice (mice): toxic
inhibition at 1 µM (mouse Spns2 [2]): 44 ± 5%
effect on kidney fibrosis (kidney fibrosis): ameliorated kidney fibrosis

SMILES: CCCCCCCCCCc1ccc(-c2cn(CC)c(CCCN)n2)cc1 [SLF80721166]
IC50 (mouse Spns2 [4]): 1400 ± 300 nM
